Test results published in US10550110B2, “Tetrahydroquinoline sulfonamide derivatives as inverse agonists of retinoid-related orphan receptor gamma (ROR gamma (t))” (GALDERMA RESEARCH & DEVELOPMENT, priority 2014, dated 2020).
pIC50: −log10 of the molar value.

The compounds below were run against T1, ROR gamma ligand-binding domain (LBD) (hRORg) (Homo sapiens, UniProt P51449) (assay: GAL4-RORγ transactivation (luciferase reporter, HG5LN HeLa line)). Settings: HG5LN HeLa line with GAL4 DBD fused to ROR gamma LBD, 18 hours incubation.
T1 construct: expressed in transfected cells; host or cells: HG5LN (HeLa line with GAL4-responsive luciferase reporter)
T1 sequence (P51449 269-508 limits assumed): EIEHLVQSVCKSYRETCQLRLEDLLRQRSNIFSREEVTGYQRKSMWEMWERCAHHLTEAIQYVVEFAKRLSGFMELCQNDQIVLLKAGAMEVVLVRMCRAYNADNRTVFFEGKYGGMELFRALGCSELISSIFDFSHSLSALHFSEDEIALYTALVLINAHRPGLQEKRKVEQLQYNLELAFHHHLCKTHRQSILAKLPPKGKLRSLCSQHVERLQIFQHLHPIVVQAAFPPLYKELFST
Type: cell-based
Excerpt: GAL4—RORγ Transactivation
The RORγ transactivation model was developed from the line HG5LN, which is a HeLa line that stably expresses a luciferase reporter gene controlled by a pentamer of the GAL4 recognition domain of yeast and of a β-globin promoter. The HG5LN line was stably transfected by the DNA-binding domain (DBD) of GAL4 fused to the ROR gamma ligand-binding domain (LBD). Molecules that inhibit the ROR gamma constitutive activity reduce the luciferase expression, thus leading to a reduction in the emitted luminescence.
The cells are seeded in 384-well plates (5000 cells in 45 μL/well of culture medium containing 10% fetal calf serum) and incubated for 4 hours at 37° C., 5% CO2. 5 μL of the test molecules (compounds described in the tables described above) are then added to each well and the plates are incubated for 18 hours at a temperature of 37° C. under 5% of CO2. 20 μL of luciferase substrate (Promega) are added to each well and the luminescence emitted is read by a microplate reader.
The luminescence units (“RLU”) are normalized by positive controls (“POS” containing a saturated concentration of N-(2,2,2-trifluoroethyl)-N-[4-[2,2,2-trifluoro-1-hydroxy-1-(trifluoromethyl)ethyl]phenyl])benzenesulfonamide and negative controls (“NEG” containing DMSO): % inhibition=((RLU-NEG)*100)/(POS-NEG). The IC50 values are calculated from a 4-parameter logistic model using the XLFit software (IDBS).

Structure (SMILES) | pIC50
CCc1ccc(N(CC(C)C)S(=O)(=O)c2ccc3c(c2)C(O)CCN3CC2CCN(C(=O)OC)C2)cc1 (centres unmarked) [Compound 50, methyl ester of 3-{6-[(4-ethylphenyl)isobutylsulfamoyl]-4-hydroxy-3,4-dihydro-2H-quinolin-1-ylmethyl}pyrrolidine-1-carboxylic acid] | < 6.00
CCc1ccc(N(CC(C)C)S(=O)(=O)c2ccc3c(c2)C(O)CCN3CC2CCN(C(=O)OC)CC2)cc1 (centres unmarked) [Compound 51, methyl ester of 4-{6-[(4-ethylphenyl)isobutylsulfamoyl]-4-hydroxy-3,4-dihydro-2H-quinolin-1-ylmethyl}piperidine-1-carboxylic acid] | < 6.00
CCc1ccc(N(CC(C)C)S(=O)(=O)c2ccc3c(c2)C(=O)CCN3CC2CCNCC2)cc1 [Compound 54, 4-oxo-1-piperidin-4-ylmethyl-1,2,3,4-tetrahydroquinoline-6-sulfonic acid (4-ethylphenyl)isobutylamide] | < 6.00
CCc1ccc(N(CC(C)C)S(=O)(=O)c2ccc3c(c2)C(=O)CCN3C2CCNCC2)cc1 [Compound 55, 4-oxo-1-piperidin-4-yl-1,2,3,4-tetrahydroquinoline-6-sulfonic acid (4-ethylphenyl)isobutylamide] | < 6.00
CCc1ccc(N(CC(C)C)S(=O)(=O)c2ccc3c(c2)C(O)CCN3CC2CCNCC2)cc1 (centres unmarked) [Compound 56, 4-hydroxy-1-piperidin-4-ylmethyl-1,2,3,4-tetrahydroquinoline-6-sulfonic acid (4-ethylphenyl)isobutylamide] | < 6.00
CCc1ccc(N(CC(C)C)S(=O)(=O)c2ccc3c(c2)C(O)CCN3C2CCNCC2)cc1 (centres unmarked) [Compound 57, 4-hydroxy-1-piperidin-4-yl-1,2,3,4-tetrahydroquinoline-6-sulfonic acid (4-ethylphenyl)isobutylamide] | < 6.00
CCc1ccc(N(CC(C)C)S(=O)(=O)c2ccc3c(c2)C(O)CCN3CC2CCN(C(C)=O)CC2)cc1 (centres unmarked) [Compound 58, 1-(1-acetylpiperidin-4-ylmethyl)-4-hydroxy-1,2,3,4-tetrahydroquinoline-6-sulfonic acid (4-ethylphenyl)isobutylamide] | < 6.00
CCc1ccc(N(CC(C)C)S(=O)(=O)c2ccc3c(c2)C(O)CCN3CC2CCN(S(C)(=O)=O)CC2)cc1 (centres unmarked) [Compound 59, 4-hydroxy-1-(1-methanesulfonylpiperidin-4-ylmethyl)-1,2,3,4-tetrahydroquinoline-6-sulfonic acid (4-ethylphenyl)isobutylamide] | < 6.00
CCc1ccc(N(CC(C)C)S(=O)(=O)c2ccc3c(c2)C(=O)CCN3C2CCN(C(C)=O)CC2)cc1 [Compound 60, 1-(1-acetylpiperidin-4-yl)-4-oxo-1,2,3,4-tetrahydroquinoline-6-sulfonic acid (4-ethylphenyl)isobutylamide] | < 6.00
CCc1ccc(N(CC(C)C)S(=O)(=O)c2ccc3c(c2)C(O)CCN3C2CCN(C(C)=O)CC2)cc1 (centres unmarked) [Compound 61, 1-(1-acetylpiperidin-4-yl)-4-hydroxy-1,2,3,4-tetrahydroquinoline-6-sulfonic acid (4-ethylphenyl)isobutylamide] | < 6.00
CCc1ccc(N(CC(C)C)S(=O)(=O)c2ccc3c(c2)C(=O)CCN3C2CCN(S(C)(=O)=O)CC2)cc1 [Compound 63, 1-(1-methanesulfonylpiperidin-4-yl)-4-oxo-1,2,3,4-tetrahydroquinoline-6-sulfonic acid (4-ethylphenyl)isobutylamide] | < 6.00
CCc1ccc(N(CC(C)C)S(=O)(=O)c2ccc3c(c2)C(O)CCN3C2CCN(S(C)(=O)=O)CC2)cc1 (centres unmarked) [Compound 64, 4-hydroxy-1-(1-methanesulfonylpiperidin-4-yl)-1,2,3,4-tetrahydroquinoline-6-sulfonic acid (4-ethylphenyl)isobutylamide] | < 6.00
COc1ccc(N(C(C)C)S(=O)(=O)c2ccc3c(c2)C(O)CCN3Cc2cn[nH]c2)c(C)c1 (centres unmarked) [Compound 65, 4-hydroxy-1-(1H-pyrazol-4-ylmethyl)-1,2,3,4-tetrahydroquinoline-6-sulfonic acid isopropyl(4-methoxy-2-methylphenyl)amide] | < 6.00

The next lines start with the values.

pIC50 | Structure (SMILES)
6.00 to 7.00 | CCc1ccc(N(CC(C)C)S(=O)(=O)c2ccc3c(c2)C(O)CCN3Cc2nonc2C)cc1 (centres unmarked) [Compound 32, 4-hydroxy-1-(4-methylfurazan-3-ylmethyl)-1,2,3,4-tetrahydroquinoline-6-sulfonic acid (4-ethylphenyl)isobutylamide]
< 6.00 | CCc1ccc(N(CC(C)C)S(=O)(=O)c2ccc3c(c2)C(O)CCN3CC2CCC(F)(F)CC2)cc1 (centres unmarked) [Compound 33, 1-(4,4-difluorocyclohexylmethyl)-4-hydroxy-1,2,3,4-tetrahydroquinoline-6-sulfonic acid (4-ethylphenyl)isobutylamide]
6.00 to 7.00 | CCc1ccc(N(CC(C)C)S(=O)(=O)c2ccc3c(c2)C(O)CCN3CC2CCC(F)(F)C2)cc1 (centres unmarked) [Compound 34, 1-(3,3-difluorocyclopentylmethyl)-4-hydroxy-1,2,3,4-tetrahydroquinoline-6-sulfonic acid (4-ethylphenyl)isobutylamide]
< 6.00 | CCc1ccc(N(CC(C)C)S(=O)(=O)c2ccc3c(c2)C(O)CCN3CC2CCC(C#N)CC2)cc1 (centres unmarked) [Compound 35, 1-(4-cyanocyclohexylmethyl)-4-hydroxy-1,2,3,4-tetrahydroquinoline-6-sulfonic acid (4-ethylphenyl)isobutylamide]
6.00 to 7.00 | CCc1ccc(N(CC(C)C)S(=O)(=O)c2ccc3c(c2)C(O)CCN3OC2CCOCC2)cc1 (centres unmarked) [Compound 36, 4-hydroxy-1-(tetrahydropyran-4-yloxy)-1,2,3,4-tetrahydroquinoline-6-sulfonic acid (4-ethylphenyl)isobutylamide]
< 6.00 | CCc1ccc(N(CC(C)C)S(=O)(=O)c2ccc3c(c2)C(O)CCN3[C@H](C)C2CCOCC2)cc1 (stereo partly drawn) [Compound 38, 4-hydroxy-1-[(R)-1-(tetrahydropyran-4-yl)ethyl]-1,2,3,4-tetrahydroquinoline-6-sulfonic acid (4-ethylphenyl)isobutylamide]
< 6.00 | CCc1ccc(N(CC(C)C)S(=O)(=O)c2ccc3c(c2)C(O)CCN3[C@H](C)C2CCOCC2)cc1 (stereo partly drawn) [Compound 39, 4-hydroxy-1-[(R)-1-(tetrahydropyran-4-yl)ethyl]-1,2,3,4-tetrahydroquinoline-6-sulfonic acid (4-ethylphenyl)isobutylamide]
6.00 to 7.00 | CCc1ccc(N(CC(C)C)S(=O)(=O)c2ccc3c(c2)C(O)CCN3[C@@H](C)C2CCOCC2)cc1 (stereo partly drawn) [Compound 40, 4-hydroxy-1-[(S)-1-(tetrahydropyran-4-yl)ethyl]-1,2,3,4-tetrahydroquinoline-6-sulfonic acid (4-ethylphenyl)isobutylamide]
6.00 to 7.00 | CCc1ccc(N(CC(C)C)S(=O)(=O)c2ccc3c(c2)C(O)CCN3[C@@H](C)C2CCOCC2)cc1 (stereo partly drawn) [Compound 41, 4-hydroxy-1-[(S)-1-(tetrahydropyran-4-yl)ethyl]-1,2,3,4-tetrahydroquinoline-6-sulfonic acid (4-ethylphenyl)isobutylamide]
6.00 to 7.00 | CCc1ccc(N(CC(C)C)S(=O)(=O)c2ccc3c(c2)C(O)CCN3CC2CC3(COC3)C2)cc1 (centres unmarked) [Compound 44, 4-hydroxy-1-(2-oxaspiro[3.3]hept-6-ylmethyl)-1,2,3,4-tetrahydroquinoline-6-sulfonic acid (4-ethylphenyl)isobutylamide]
< 6.00 | CCc1ccc(N(CC(C)C)S(=O)(=O)c2ccc3c(c2)C(O)CCN3Cc2ccc(C(=O)NO)cc2)cc1 (centres unmarked) [Compound 47, 4-{6-[(4-ethylphenyl)isobutylsulfamoyl]-4-hydroxy-3,4-dihydro-2H-quinolin-1-ylmethyl}-N-hydroxybenzamide]
< 6.00 | CCc1ccc(N(CC(C)C)S(=O)(=O)c2ccc3c(c2)C(O)CCN3[C@H]2CC[C@H](C(=O)OC)CC2)cc1 (stereo partly drawn) [Compound 48, methyl (1R,4R)-4-(6-(N-(4-ethylphenyl)-N-isobutylsulfamoyl)-4-hydroxy-3,4-dihydroquinolin-1(2H)-yl)cyclohexane-1-carboxylate]
< 6.00 | CCc1ccc(N(CC(C)C)S(=O)(=O)c2ccc3c(c2)C(O)CCN3[C@H]2CC[C@@H](C(=O)OC)CC2)cc1 (stereo partly drawn) [Compound 49, methyl (1S,4S)-4-(6-(N-(4-ethylphenyl)-N-isobutylsulfamoyl)-4-hydroxy-3,4-dihydroquinolin-1(2H)-yl)cyclohexane-1-carboxylate]
